From patent US8377458B2, “Cooling sensation agent composition, sensory stimulation agent composition and use of the same” (Takasago International Corporation, priority 2009, dated 2013)

Key:
[1] = tested on: inside of upper parts of arms; experiment: Test of a cooling towel (direct spraying), sensory evaluation; format: in vivo, human (panelists)
Description: Those which were air-dried for 10 minutes, 3 hours or 24 hours after spraying were sensory evaluated. The sensory evaluation was carried out by touching the cooling towel with the inside of upper parts of arms, and cooling action at that time was determined. Meanwhile, the evaluation was carried out by five panelists having 5 years or longer experience. […] The results are shown by the total score of the ranking numbers. In other words, smaller total score means to show a better cooling sensation effect.

[2] = tested on: inside of upper parts of arms; experiment: Test of a cooling towel (washing processed), sensory evaluation; format: in vivo, human (panelists); settings: for total score of the ranking numbers (cooling effect on treated hand towel after washing): 1% in washing detergent
Description: The hand towel thus prepared and those after further air-dried for 24 hours or 48 hours were brought into contact with the inside of upper parts of arms, and the cooling action thereof was determined organoleptically. Meanwhile, the evaluation was carried out by five panelists having 5 years or longer experience. The above compounds, mixtures and menthoxypropanediol were divided into three groups of A to C (group A; […] The results are shown by the total score of the ranking numbers. […] In other words, smaller total score means to show a better cooling sensation effect.

[3] = Group A (5 samples ranked by 5 panelists, smaller = better), direct spraying 1 g of 1% ethanol solution, after 10 min air drying
[4] = Group A, direct spraying, after 3 hr air drying, smaller = better
[5] = Group A, direct spraying, after 24 hr air drying, smaller = better
[6] = Group A (4 samples ranked by 5 panelists, smaller = better), after 6 hr air drying
[7] = Group A, after 24 hr, smaller = better
[8] = Group A, after 48 hr, smaller = better
[9] = Group B, direct spraying, after 10 min air drying, smaller = better
[10] = Group B, direct spraying, after 3 hr air drying, smaller = better
[11] = Group B, direct spraying, after 24 hr air drying, smaller = better
[12] = Group B, after 6 hr, smaller = better
[13] = Group B, after 24 hr, smaller = better
[14] = Group B, after 48 hr, smaller = better
[15] = Group C, direct spraying, after 10 min air drying, smaller = better
[16] = Group C, direct spraying, after 3 hr air drying, smaller = better
[17] = Group C, direct spraying, after 24 hr air drying, smaller = better
[18] = Group C, after 6 hr, smaller = better
[19] = Group C, after 24 hr, smaller = better
[20] = Group C, after 48 hr, smaller = better

SMILES | total score of the ranking numbers (cooling effect on treated hand towel) [1, 3] | total score of the ranking numbers (cooling effect on treated hand towel) [1, 4] | total score of the ranking numbers (cooling effect on treated hand towel) [1, 5] | total score of the ranking numbers (cooling effect on treated hand towel after washing) [2, 6] | total score of the ranking numbers (cooling effect on treated hand towel after washing) [2, 7] | total score of the ranking numbers (cooling effect on treated hand towel after washing) [2, 8] | total score of the ranking numbers (cooling effect on treated hand towel) [1, 9] | total score of the ranking numbers (cooling effect on treated hand towel) [1, 10] | total score of the ranking numbers (cooling effect on treated hand towel) [1, 11] | total score of the ranking numbers (cooling effect on treated hand towel after washing) [2, 12] | total score of the ranking numbers (cooling effect on treated hand towel after washing) [2, 13] | total score of the ranking numbers (cooling effect on treated hand towel after washing) [2, 14] | total score of the ranking numbers (cooling effect on treated hand towel) [1, 15] | total score of the ranking numbers (cooling effect on treated hand towel) [1, 16] | total score of the ranking numbers (cooling effect on treated hand towel) [1, 17] | total score of the ranking numbers (cooling effect on treated hand towel after washing) [2, 18] | total score of the ranking numbers (cooling effect on treated hand towel after washing) [2, 19] | total score of the ranking numbers (cooling effect on treated hand towel after washing) [2, 20] | further results
CC1CCC(C(C)C)C(OCCOC(=O)CCC(=O)OC2CC(C)CCC2C(C)C)C1 (stereo not drawn) [Compound 1, l-menthyl-(l-menthoxyethyl)succinic ester] | 18 | 12 | 11 | 11 | 10 | 13 | – | – | – | – | – | – | – | – | – | – | – | – | –
CC(C)[C@@H]1CC[C@@H](C)C[C@H]1O [Compound 1-Menthol, l-menthol, reference compound] | 6 | 24 | 25 | – | – | – | 7 | 24 | 25 | – | – | – | – | – | – | – | – | – | cooling action (in words) ([1]; direct spraying, after air drying for 10 minutes): strongest cooling action; lasting / consistency of cooling action (in words) ([1]; direct spraying, over 10 min to 24 hr): less consistent
CC(C)[C@@H]1CC[C@@H](C)C[C@H]1OCC(O)COC(=O)CCC(=O)O[C@@H]1C[C@H](C)CC[C@H]1C(C)C (stereo partly drawn) [Compound 2, l-menthyl-3-(l-menthoxy)-2-(hydroxypropyl)succinic ester] | 18 | 13 | 13 | 13 | 11 | 12 | – | – | – | – | – | – | – | – | – | – | – | – | –
C=C(C)C1CCC(C)CC1OC(=O)CCC(=O)OC1CC(C)CCC1C(C)C (stereo not drawn) [Compound 3, l-menthyl-(l-isopulegyl)succinic ester] | – | – | – | – | – | – | 16 | 10 | 10 | 11 | 10 | 10 | – | – | – | – | – | – | –
CC(C)=CCCC(C)CCOC(=O)CCC(=O)OC1CC(C)CCC1C(C)C (stereo not drawn) [Compound 4, l-menthyl-(l-citronellyl)succinic ester] | – | – | – | – | – | – | – | – | – | – | – | – | 16 | 18 | 16 | 10 | 12 | 11 | –
CC1CCC(C(C)C)C(OC(=O)CCCC(=O)OCCc2ccccc2)C1 (stereo not drawn) [Compound 6, l-menthyl-(phenylethyl)glutaric ester] | – | – | – | – | – | – | 17 | 14 | 14 | 13 | 14 | 14 | – | – | – | – | – | – | –
CC(C)=CCCC(C)CCOC(=O)CCCC(=O)OC1CC(C)CCC1C(C)C (stereo not drawn) [Compound 7, l-menthyl-(l-citronellyl)glutaric ester] | – | – | – | – | – | – | – | – | – | – | – | – | 15 | 17 | 18 | – | – | – | –
CC1CCC(C(C)C)C(OCCOC(=O)CCCC(=O)OC2CC(C)CCC2C(C)C)C1 (stereo not drawn) [Compound 8, l-menthyl-(l-menthoxyethyl)-glutaric ester] | – | – | – | – | – | – | – | – | – | – | – | – | 13 | 12 | 11 | 13 | 13 | 13 | –
CC1CCC(C(C)C)C(OC(=O)CCCC(=O)OC2CC(C)CCC2C(C)C)C1 (stereo not drawn) [Dimenthylglutaric acid, reference compound] | 22 | 20 | 21 | – | – | – | 22 | 20 | 19 | – | – | – | 22 | 21 | 23 | – | – | – | –
CC1CCC(C(C)C)C(OCC(O)CO)C1 (stereo not drawn) [Menthoxypropanediol, l-menthoxypropanediol, reference compound] | – | – | – | 19 | 20 | 19 | – | – | – | 18 | 19 | 20 | – | – | – | 19 | 20 | 19 | cooling action (in words) ([2]; after the washing treatment and 6 hours of air drying): almost no cooling action was observed
